Results taken from patent US20220241354A1, “COMPOSITION” (MORINAGA MILK INDUSTRY CO., LTD., priority 2019, published 2022).

What was measured:
[1] = system: Bifidobacterium breve M-16V; test: Growth promoting effect on Bifidobacterium breve M-16V (turbidity at 600 nm after anaerobic culture); format: cell-based; settings: 2′-FL 1.000 mass %, lactoferrin 0.000 mg/mL; glucose-free MRS, 37° C., 24 hours, n = 4
Method: (§1) DifcoMRS (BD) was dissolved in purified water as described in a package insert and sterilized at 115° C. for 15 minutes. L-Cysteine hydrochloride (Wako) was dissolved in purified water, filtered and sterilized, and was aseptically added to MRS medium cooled to room temperature after sterilization to have a final concentration of 0.05% by mass.
as §1, with “A reagent” for “DifcoMRS (BD)”, “with the composition shown” for “as described”, “Table 1” for “a package insert”
Human milk oligosaccharide (2′-fucosyllactose (2′-FL) (Carbosynth)) and lactoferrin (produced by Morinaga Milk Industry Co., Ltd., iron content 15.8 mg/100 g) were dissolved in purified water, respectively. They were filtered and sterilized after dissolution.
150 μL of a pre-culture solution of Bifidobacterium breve M-16V was added to 3 mL of MRS medium prepared in (1) (i), and was anaerobically cultured at 37° C. for 16 hours. […]
(§2) Then, the cells were anaerobically cultured at 37° C. for 24 hours. After culturing, turbidity was measured at a wavelength of 600 nm using a microplate reader (Corona Electric) to evaluate the growth of bifidobacteria.

[2] = system: Bifidobacterium infantis M-63; test: Growth promoting effect on Bifidobacterium infantis M-63 (turbidity at 600 nm); format: cell-based; settings: 2′-FL 1.000 mass %, lactoferrin 0.000 mg/mL; 37° C., 24 hours, n = 12
Method: 150 μL of a pre-culture solution of Bifidobacterium breve M-16V was added to 3 mL of MRS medium prepared in (1) (i), and was anaerobically cultured at 37° C. for 16 hours. After culturing, the cells were separated from the culture solution by centrifuging at 1500×g for 5 minutes. The culture solution was removed, and the cells were resuspended in 3 mL of glucose-free MRS medium prepared in (1) (ii).
The pre-culture solution prepared in (2) was added to the glucose-free MRS medium prepared in (1) (ii) to have a final concentration of 1 v/v %. Further, the 2′-fucosyllactose (2′-FL) solution and the lactoferrin solution prepared in (1) (iii) were respectively added to have the final concentrations shown in Table 2, and were dispensed into a 96-well plate at 200 μL/well.
as §2
The same operation as in Example 1 was carried out except that the bifidobacteria were replaced with Bifidobacterium infantis M-63, and the growth was evaluated.

Substance: 2′-fucosyllactose [2′-FL]
- OD600 [1]: 0.076
- OD600 [2]: 0.440
